# Test results: PMC8671752, “Effects of ex vivo Extracorporeal Membrane Oxygenation Circuits on Sequestration of Antimicrobial Agents” (Frontiers in Medicine, 2021)
# Marks after values point to notes of the source that are not given here. Positions of bridges follow the written chain, without caps; N, C: chain ends. Non-standard residues stand in square brackets, D forms with d. Residues, ends and D or L forms follow the SMILES beside them. *: point of attachment. X1 = CC[C@H](C)CCCCC(=O)*; Dab = NCC[C@H](N)C(=O)O
# Columns and labels:
# [1] = cited from earlier work; for Lipophilicity (log P): ref DrugBank [12]
# [2] = Drug recovery in blood-primed ex vivo ECMO circuits (average of Maquet and Sorin); settings: for Drug recovery (%) from circuits at 24 h: average over Maquet and Sorin circuits, closed loop primed with fresh whole human blood, 37°C, pH 7.25–7.55, 4–5 L/min, plasma HPLC-MS/MS, relative to 2 min baseline, mean (SD), SD
# Procedure: (§1) Four healthy volunteers were recruited. After obtaining informed consent, 402 ml of blood was collected through the cubitus vein using disposable blood bags (Fresenius Kabi), of which 2 ml was used for a routine blood examination. Sorin (LivaNova, London, United Kingdom) and Maquet (Getinge AB, Hirrlingen, Germany) ECMO circuits were used to establish self-circulation and were primed with fresh whole human blood. After the circulation stabilized, the drugs were added to the circuit. Blood samples were collected at different time points, and the drug concentration was measured to observe the recovery rate of different drugs in the ECMO cycle.
# (§2) Each circuit consisted of a membrane oxygenator, centrifugal pump, cannula, heat exchanger, and PVC tubing. The materials of each ECMO component are shown in Supplementary Material 1. A reservoir bag containing 30 mL of blood was used to construct a bypass to maintain the pressure of the circuit (Figure 1). Eight hundred milliliters of fresh whole human blood (<1 h old) was used to prime the circuit. Heparin (5,000 U) was added to the circuits to prevent clotting.
# (§3) The circuit flow rate was controlled at 4–5 L/min. Circuit temperature was maintained at 37°C.
# (§4) These bolus doses were selected to produce concentrations similar to clinical concentrations. The order of administration was determined according to the half-life from long to short. According to the drug instructions, none of the drugs interact with each other ([12]). Two milliliters of physiological saline solution (0.9%) was used to flush the tube after injection of all drugs to avoid drug loss at the entrance of administration.
# [3] = ref DrugBank [12]; cited from earlier work
# [4] = Control group: spontaneous drug degradation in whole blood at 37°C; settings: HPLC-MS/MS; for Drug recovery (%) from control group at 24 h: controls of both experiments, whole human blood taken 2 min after injection, not passed through circuit, relative to 2 min baseline; for Drug recovery (%) from control group at 24 h / Mean drug recovery, Control-24 h (Maquet experiment) / Drug recovery, Control-24 h (Sorin experiment): water bath 37°C 24 h; for Drug recovery (%) from control group at 24 h / Mean drug recovery, Control-3 h (Maquet experiment) / Mean drug recovery, Control-6 h (Maquet experiment) / Mean drug recovery, Control-12 h (Maquet experiment) / Mean drug recovery, Control-24 h (Maquet experiment): mean (SD), SD; for Mean drug recovery, Control-3 h (Maquet experiment) / Mean drug recovery, Control-6 h (Maquet experiment) / Mean drug recovery, Control-12 h (Maquet experiment) / Mean drug recovery, Control-24 h (Maquet experiment): control of Maquet experiment, n=2; for Mean drug recovery, Control-3 h (Maquet experiment) / Mean drug recovery, Control-6 h (Maquet experiment) / Mean drug recovery, Control-12 h (Maquet experiment) / Mean drug recovery, Control-24 h (Maquet experiment) / Drug recovery, Control-6 h (Sorin experiment) / Drug recovery, Control-24 h (Sorin experiment) / Drug recovery, Control-3 h (Sorin experiment): whole human blood, no circuit, % of 2 min concentration; for Mean drug recovery, Control-3 h (Maquet experiment) / Drug recovery, Control-3 h (Sorin experiment): water bath 37°C 3 h; for Mean drug recovery, Control-6 h (Maquet experiment) / Drug recovery, Control-6 h (Sorin experiment): water bath 37°C 6 h; for Mean drug recovery, Control-12 h (Maquet experiment): water bath 37°C 12 h; for Drug recovery, Control-6 h (Sorin experiment) / Drug recovery, Control-24 h (Sorin experiment) / Drug recovery, Control-3 h (Sorin experiment): control of Sorin experiment, single measurement
# [5] = ex vivo experiment by Shekar et al.; cited from earlier work
# [6] = Drug recovery in the Maquet ECMO circuit; settings: Bioline-coated circuit, whole human blood, 37°C, HPLC-MS/MS, % of 2 min concentration, mean (SD), n=2
# Procedure: as §1, §2, §3, §4
# (§5) In this study, two experiments were carried out and 26 blood samples were analyzed. The first experiment was conducted with the Maquet ECMO circuit. […] The blood samples collected at each time point were measured twice due to the uncertainty of the initial experiment.
# [7] = Drug recovery in the Sorin ECMO circuit; settings: phosphorylcholine-coated circuit, whole human blood, 37°C, HPLC-MS/MS, % of 2 min concentration, single measurement
# Procedure: as §1, §2, §3, §4, §5
# [8] = critically ill patients; no reference given; cited from earlier work
smiles,measurement,setting,value
"C[C@@H](c1ncncc1F)[C@](O)(Cn1cncn1)c1ccc(F)cc1F [Voriconazole, voriconazole]",Lipophilicity (log P),[1],2.561
"CC[C@H](C)C[C@H](C)CCCCCCCCC(=O)N[C@H]1C[C@@H](O)[C@@H](NCCN)NC(=O)[C@@H]2[C@@H](O)CCN2C(=O)[C@H]([C@H](O)CCN)NC(=O)[C@H]([C@H](O)[C@@H](O)c2ccc(O)cc2)NC(=O)[C@@H]2C[C@@H](O)CN2C(=O)[C@H]([C@@H](C)O)NC1=O [Caspofungin, caspofungin]",Drug recovery (%) from circuits at 24 h,[2],83.26 (6.17) %
same,Protein binding rate (%),[3],97%
same,Drug recovery (%) from control group at 24 h,[4],85.24 (7.93) %
same,Lipophilicity (log P),[1],−2.798
same,Average drug recovery at 24 h in the ECMO circuit,[5],56%
"CCN1CCN(C(=O)N[C@@H](C(=O)N[C@@H]2C(=O)N3C(C(=O)O)=C(CSc4nnnn4C)CS[C@H]23)c2ccc(O)cc2)C(=O)C1=O [Cefoperazone, cefoperazone]","Mean drug recovery, Control-3 h (Maquet experiment)",[4],100% (0%)
same,"Mean drug recovery, Control-6 h (Maquet experiment)",[4],99% (0%)
same,"Mean drug recovery, Control-12 h (Maquet experiment)",[4],100% (2%)
same,"Mean drug recovery, Control-24 h (Maquet experiment)",[4],98% (2%)
same,"Drug recovery, Control-6 h (Sorin experiment)",[4],98%
same,"Drug recovery, Control-24 h (Sorin experiment)",[4],98%
same,Drug recovery (%) from control group at 24 h,[4],98.30 (1.17) %
same,Lipophilicity (log P),[1],−0.74
same,"Mean drug recovery, Maquet circuit, 5 min",[6],102% (3%)
same,"Mean drug recovery, Maquet circuit, 15 min",[6],100% (4%)
same,"Mean drug recovery, Maquet circuit, 30 min",[6],100% (2%)
same,"Mean drug recovery, Maquet circuit, 1 h",[6],102% (1%)
same,"Mean drug recovery, Maquet circuit, 3 h",[6],98% (2%)
same,"Mean drug recovery, Maquet circuit, 6 h",[6],99% (1%)
same,"Mean drug recovery, Maquet circuit, 12 h",[6],91% (5%)
same,"Mean drug recovery, Maquet circuit, 24 h",[6],81% (1%)
same,"Drug recovery, Sorin circuit, 5 min",[7],100%
same,"Drug recovery, Sorin circuit, 15 min",[7],100%
same,"Drug recovery, Sorin circuit, 30 min",[7],99%
same,"Drug recovery, Sorin circuit, 1 h",[7]; 1 h,102%
same,"Drug recovery, Sorin circuit, 6 h",[7],98%
same,"Drug recovery, Sorin circuit, 12 h",[7],92%
same,"Drug recovery, Sorin circuit, 24 h",[7],75%
"C[C@@H](O)[C@H]1C(=O)N2C(C(=O)O)=C(S[C@@H]3CN[C@H](C(=O)N(C)C)C3)[C@H](C)[C@H]12 [Meropenem, meropenem]",Drug recovery (%) from circuits at 24 h,[2],45.37 (3.58) %
same,Average loss at 24 h in the circuits,"[2]; loss, average of Maquet and Sorin circuits",55%
same,"Mean drug recovery, Control-3 h (Maquet experiment)",[4],97% (4%)
same,"Mean drug recovery, Control-6 h (Maquet experiment)",[4],91% (9%)
same,"Mean drug recovery, Control-12 h (Maquet experiment)",[4],77% (8%)
same,"Mean drug recovery, Control-24 h (Maquet experiment)",[4],65% (10%)
same,"Drug recovery, Control-3 h (Sorin experiment)",[4],97%
same,"Drug recovery, Control-6 h (Sorin experiment)",[4],102%
same,"Drug recovery, Control-24 h (Sorin experiment)",[4],95%
same,Drug recovery (%) from control group at 24 h,[4],74.84 (19.10) %
same,Lipophilicity (log P),[1],−0.6
same,"Mean drug recovery, Maquet circuit, 5 min",[6],100% (0%)
same,"Mean drug recovery, Maquet circuit, 15 min",[6],100% (1%)
same,"Mean drug recovery, Maquet circuit, 30 min",[6],101% (4%)
same,"Mean drug recovery, Maquet circuit, 1 h",[6],98% (0%)
same,"Mean drug recovery, Maquet circuit, 3 h",[6],93% (2%)
same,"Mean drug recovery, Maquet circuit, 6 h",[6],83% (7%)
same,"Mean drug recovery, Maquet circuit, 12 h",[6],64% (2%)
same,"Mean drug recovery, Maquet circuit, 24 h",[6],45% (5%)
same,"Drug recovery, Sorin circuit, 3 h",[7],100%
same,"Drug recovery, Sorin circuit, 6 h",[7],92%
same,"Drug recovery, Sorin circuit, 12 h",[7],74%
same,"Drug recovery, Sorin circuit, 24 h",[7],47%
CC(C)c1cccc(C(C)C)c1O [propofol],octanol/water partition (log P),[1],4.0
"CC[C@H](C)CCCCC(=O)N[C@@H](CCN)C(=O)N[C@H](C(=O)N[C@@H](CCN)C(=O)N[C@H]1CCNC(=O)[C@H]([C@@H](C)O)NC(=O)[C@H](CCN)NC(=O)[C@H](CCN)NC(=O)[C@H](CC(C)C)NC(=O)[C@@H](Cc2ccccc2)NC(=O)[C@H](CCN)NC1=O)[C@@H](C)O [Polymyxin B, polymyxin B] (X1-[Dab]T[Dab][Dab][Dab][dF]L[Dab][Dab]T; lactam 4-C)",Protein binding rate (%),[3],79–92%
same,"Drug recovery, Control-3 h (Sorin experiment)",[4],91%
same,"Drug recovery, Control-6 h (Sorin experiment)",[4],93%
same,"Drug recovery, Control-24 h (Sorin experiment)",[4],60.10 (-)^* %
same,Lipophilicity (log P),[1],−4.861
same,"Drug recovery, Sorin circuit, 5 min",[7],118%
same,"Drug recovery, Sorin circuit, 15 min",[7],86%
same,"Drug recovery, Sorin circuit, 30 min",[7],84%
same,"Drug recovery, Sorin circuit, 3 h",[7],117%
same,"Drug recovery, Sorin circuit, 6 h",[7],74%
same,"Drug recovery, Sorin circuit, 12 h",[7],74%
same,"Drug recovery, Sorin circuit, 24 h",[7],61.66 (-)^* %
"CN(C)c1cc(NC(=O)CNC(C)(C)C)c(O)c2c1C[C@H]1C[C@H]3[C@H](N(C)C)C(O)=C(C(N)=O)C(=O)[C@@]3(O)C(O)=C1C2=O [Tigecycline, tigecycline]",Drug recovery (%) from circuits at 24 h,[2],100.03 (13.68) %
same,Drug recovery (%) from control group at 24 h,[4],144.54 (2.31) %
same,Lipophilicity (log P),[1],0.8
same,Average Vd in critically ill patients,[8],398 L
